Experimental data reported in patent US20200188297A1, “LXR Agonist in Topical Ophthalmic Formulation for Treatment of Dry-Eye Disorder” (eyeNOS, Inc., priority 2018, published 2020).
Read-outs that look alike come from different tables or passages of the source.

Key:
[1] = system: human corneal epithelial cells (HCE-T); test: Multiplex cytokine expression analysis, LPS-induced secretion; format: cell-based; conditions: LPS 10 ng/ml, preincubation with compound
Method: The anti-inflammatory effects of T0901317 were studied on in-vitro cell culture of human corneal epithelial cells (HCE-T). […] Multiplex cytokine expression analysis was performed to determine the anti-inflammatory effects of T0901317 (at 200 nM). […] Lipopolysaccharide (LPS)-induced (10 ng/ml) secretion of IL-17, IL-18, and IFNγ was also examined. […] Topical application is not expected to result in activation of the pregnane X receptor (PXR), supporting the notion that the anti-inflammatory effects observed here, both in-vivo and in-vitro, can be attributed to LXR activation.

[2] = target: retinoid X receptor; conditions: read-out: EC50 for activation of the retinoid X receptor; cited from earlier work
[3] = system: human corneal epithelial cells (HCE-T); test: Multiplex cytokine expression analysis, hyperosmolar stress insult; format: cell-based; conditions: 200 nM, preincubation 1 hour, 600 mOsm for 20 hours
Method: The anti-inflammatory effects of T0901317 were studied on in-vitro cell culture of human corneal epithelial cells (HCE-T). HCE-T cells were grown in DMEM/F12 (1:1), 5% fetal bovine serum, penicillin-streptomycin, […] insulin, 10 ng/ml human recombinant epidermal growth factor and 0.5% dimethyl sulfoxide in 5% CO2 at 37° C. To simulate dry-eye conditions, the cells were exposed to hyperosmolar stress insult as described in Chen et al, “Hyperosmolarity-Induced Cornification of Human Corneal Epithelial Cells Is Regulated by JNK MAPK” (February 2008) Investigative Ophthalmology & Visual Science, 49(2):539-549. Confluent HCE-T were passaged into 12-well plates containing KSFM media (keratinocyte-SFM media) for 24 hours, and then NaCl was added to wells in concentrations to produce media osmolarities in the range of 350-800 mOsm. Multiplex cytokine expression analysis was performed to determine the anti-inflammatory effects of T0901317 (at 200 nM).

[4] = system: liver X receptors (LXRα, LXRβ); conditions: cited from earlier work
[5] = system: human corneal epithelial (HCE-T) cells; test: ZO-1 immunocytochemistry (barrier function) under hyperosmolar stress; format: cell-based; conditions: 0.05 μM in DMSO, pre-treated one hour; 50 mM NaCl overnight; FIG. 20
Method: The corneal epithelium serves as a physiological barrier. However, inflammation and the ensuing oxidative stress can impair barrier function and contribute to the exacerbation of inflammatory processes and increase susceptibility to other ocular surface conditions, such as corneal keratitis. The effect of ouabagenin on the barrier function of human corneal epithelial (HCE-T) cells was tested in in-vitro experiments. The cells were seeded at 25,000 cells/well in 8-chamber slides. Cells were incubated for 3 days at 37° C. until confluent. Cells were pre-treated with DMSO (vehicle) or ouabagenin (0.05 μM in DMSO). One hour later, cells received treatment of 0 (media), 25, 50, or 75 mM NaCl to mimic hyperosmolar conditions. Cells were incubated overnight at 37° C.
Zona occludens 1 (ZO-1) is a tight junction protein that is involved in the barrier function of corneal epithelium. The presence of ZO-1 (or absence thereof) is an indicator of the health of this barrier. In this experiment, immunocytochemistry for ZO-1 was performed on the HCE-T cells after the overnight incubation. Slides were imaged under a fluorescent microscope.

O=S(=O)(c1ccccc1)N(CC(F)(F)F)c1ccc(C(O)(C(F)(F)F)C(F)(F)F)cc1 [T0901317]
LPS-induced secretion of IL-17 ([1]; FIG. 19D): suppressed
LPS-induced secretion of IL-18 ([1]; FIG. 19E): suppressed
LPS-induced secretion of IFNγ ([1]; FIG. 19F): suppressed
EC50 [2]: 5 µM
hyperosmolar stress-induced secretion of IL-12 ([3]; FIG. 19B): fully suppressed
hyperosmolar stress-induced secretion of IL-17 ([3]; FIG. 19C): fully suppressed
LXR subtype selectivity [4]: selective for the LXRα subtype

C[C@]12C[C@@H](O)[C@H]3[C@@H](CC[C@]4(O)C[C@@H](O)C[C@@H](O)[C@]34CO)[C@@]1(O)CC[C@@H]2C1=CC(=O)OC1 [ouabagenin]
ZO-1 at the cell junctions (barrier function) [5]: protected against this loss of ZO-1 barrier function
LXR subtype selectivity ([4]; literature reports): LXRβ-subtype specific agonist
